In one assay the test system is ob/ob mice. Nature of the assay: 1MT treatment of ob/ob mice (drinking water). It counts as in vivo. From the text: Male C57Bl/6 Ido-1−/− mice were bought from the Jackson Laboratory (Jax) and bred in our facility. At weaning, mice were separated according to the genotype. Male ob/ob mice were bought from Janvier Laboratory at 4 weeks of age. Mice were fed with either a normal chow diet (NCD) (A03, SAFE, France) or subjected to diet-induced obesity containing 60% FAT (E15742-347, SSNIFF, Germany). High fat diet (HFD) was started at 7 weeks of age and continued for 20 weeks or less with ad libitum access to water and food. For chimerism experiment, we subjected 10 weeks old C57BL/6 WT and C57BL/6 Ido-1−/− to medullar aplasia by 9.5 gray lethal total body irradiation. We repopulated the mice with an intravenous injection of bone marrow cells isolated from femurs and tibias of male C57BL/6 WT and C57BL/6 Ido-1−/−. After 4 weeks of recovery, mice were fed a HFD for 20 weeks. In some experiments, IDO inhibitor (L-1methyl tryptophan, 1MT) (Sigma) was used at 2 mg/mL diluted in drinking water. […]
For oral glucose tolerance test (OGTT), mice were fasted overnight prior to an oral administration of 1-5 g/kg glucose. […] At 0, 15, 30, 60 min tail vein blood was collected, plasma samples were stored at −20° C. until they were analyzed for insulin concentration (Crystal Chem Inc., Downers Grove, USA). […]
HPLC Quantifications Thawed stools from mice were extracted as previously described 12. L-tryptophan (Trp) and L-kynurenine (Kyn) were measured via HPLC using a coulometric electrode array (ESA Coultronics, ESA Laboratories, Chelsford, Mass., USA)13. Quantifications were performed by referencing calibration curves obtained with internal standards. Other compounds (IAA) were quantified via liquid chromatography coupled to mass spectrometry (LC-MS) by using a Waters ACQUITY ultraperformance liquid chromatography (UPLC) system equipped with a binary solvent delivery manager and sample manager (Waters Corporation, Milford, Mass., USA) and that was coupled to a tandem quadrupole-time-of-flight (Q-TOF) mass spectrometer equipped with an electrospray interface (Waters Corporation). […]

A further assay relates to WT mice on HFD. Nature of the assay: IAA supplementation in drinking water of WT mice on HFD. It counts as in vivo. As to conditions: IAA 2 mg/ml in drinking water, HFD 11 weeks, vs not supplemented, FIG. 3. How it is done:
(a) feces IAA (indole acetic acid) (b) ITT, and quantification of M2-like macrophages (F4/80+CD11b+CD206+ in epiWAT) and CD45+ cells (n=5 per group) (c-d), in WT mice supplemented or not with IAA (diluted in drinking water, 2 mg/ml) and put on HFD during 11 weeks (n=9-10 per group Data are expressed as mean±sem. *P≤0.05, **p<0.001, ***p<0.0001.
For oral glucose tolerance test (OGTT), mice were fasted overnight prior to an oral administration of 1-5 g/kg glucose. Blood was sampled from the tail vein at 0, 5, 15, 30, 60, 90 and 120 min in order to assay glucose concentration (OneTouch Ultra glucometer, LifeScan Europe). At 0, 15, 30, 60 min tail vein blood was collected, plasma samples were stored at −20° C. until they were analyzed for insulin concentration (Crystal Chem Inc., Downers Grove, USA). Insulin tolerance test (ITT) was performed in mice food deprived for 5 h prior to an intraperitonial injection of 1 U/kg insulin. Blood was sampled from the tail vein at 0, 5, 15, 30, 60 and 90 min in order to assay glucose concentration. […]
The stromal vascular fraction (SVF) containing mononuclear cells and preadipocytes was extracted from adipose tissue. […] The SVF pellet was resuspended in 1 mL fluorescence-activated cell sorter (FACS) buffer. […] Samples were acquired using an Fortessa cytometer (Becton Dickinson) and analyzed with FlowJo (TreeStar) software programs.

[1] abbreviates: 1MT 2 mg/mL in drinking water, vs untreated, data not shown.

These results are taken from patent US20210000889A1, “METHODS FOR PROGNOSING AND TREATING METABOLIC DISEASES” (INSERM (INSTITUT NATIONAL DE LA SANTÉ ET DE LA RECHERCHE …, priority 2018, published 2021).

Structures are written as SMILES.

In the case of `Cn1cc(C[C@H](N)C(=O)O)c2ccccc21` [1MT, L-1methyl tryptophan], in the assay on ob/ob mice (setting [1]), the body weight entry is on record as “no difference in body weight” and the insulin sensitivity result is recorded as “improved insulin sensitivity”. For the same compound, the “ratio of Kyn/Trp in the feces” value in the assay with ob/ob mice (1MT-treated vs not treated, FIG. 1j) is “significant decrease”.

`O=C(O)Cc1c[nH]c2ccccc12` [IAA, indole-3-acetic acid]: in the assay on WT mice on HFD, the “adipose inflammation (M2-like macrophages and CD45+ cells in epiWAT)” value is on record as “decreases”; the “insulin resistance (ITT)” value was “decreases insulin resistance”.
